These molecules were tested against Casein kinase II subunit alpha (Homo sapiens, UniProt P68400) (assay: CK2α Inhibition Assay).
Casein kinase II subunit alpha, sequence (P68400 whole entry): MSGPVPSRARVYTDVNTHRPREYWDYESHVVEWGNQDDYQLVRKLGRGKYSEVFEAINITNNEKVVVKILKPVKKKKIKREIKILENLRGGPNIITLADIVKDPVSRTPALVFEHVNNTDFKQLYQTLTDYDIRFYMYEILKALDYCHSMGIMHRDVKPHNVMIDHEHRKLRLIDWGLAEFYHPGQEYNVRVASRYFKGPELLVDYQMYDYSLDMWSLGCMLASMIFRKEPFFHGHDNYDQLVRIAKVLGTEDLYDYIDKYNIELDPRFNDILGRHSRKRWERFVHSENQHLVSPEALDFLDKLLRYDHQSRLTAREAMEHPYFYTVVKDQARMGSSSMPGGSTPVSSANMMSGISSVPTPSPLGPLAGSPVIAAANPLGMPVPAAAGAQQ
Protocol: The activity of CK2α was tested using P81 filter isotopic assay, as it was described earlier [Łukowska-Chojnacka et al., Bioorg.

Ki [nM] | SMILES
2340 | [N-]=[N+]=NCCn1cnc2c(Br)c(Br)c(Br)c(Br)c21 [1-(2-Azidoethyl)-4,5,6,7-tetrabromo-1H-benzimidazole (3)]
3280 | [N-]=[N+]=NCCCn1cnc2c(Br)c(Br)c(Br)c(Br)c21 [1-(3-Azidopropyl)-4,5,6,7-tetrabromo-1H-benzimidazole (5)]
1960 | O=C(O)c1cn(CCn2cnc3c(Br)c(Br)c(Br)c(Br)c32)nn1 [1-[2-(4,5,6,7-Tetrabromo-1H-benzimidazol-1-yl)ethyl]-1H-1,2,3-triazole-4-carboxylic acid (7)]
910 | O=C(O)c1cn(CCCn2cnc3c(Br)c(Br)c(Br)c(Br)c32)nn1 [1-[3-(4,5,6,7-Tetrabromo-1H-benzimidazol-1-yl)propyl]-1H-1,2,3-triazole-4-carboxylic acid (10)]
2470 | O=C(O)c1cn(CCCn2nc3c(Br)c(Br)c(Br)c(Br)c3n2)nn1 [1-[3-(4,5,6,7-Tetrabromo-2H-benzotriazol-2-yl)propyl]-1H-1,2,3-triazole-4-carboxylic acid (22)]
5370 | O=C(O)CCc1cn(CCn2cnc3c(Br)c(Br)c(Br)c(Br)c32)nn1 [3-{1-[2-(4,5,6,7-Tetrabromo-1H-benzimidazol-1-yl)ethyl]-1H-1,2,3-triazole-4-yl}propanoic acid (8)]
2370 | O=C(O)CCc1cn(CCCn2cnc3c(Br)c(Br)c(Br)c(Br)c32)nn1 [3-{1-[3-(4,5,6,7-Tetrabromo-1H-benzimidazol-1-yl)propyl]-1H-1,2,3-triazole-4-yl}propanoic acid (11)]
3160 | O=C(O)CCc1cn(CCCn2nc3c(Br)c(Br)c(Br)c(Br)c3n2)nn1 [3-{1-[3-(4,5,6,7-Tetrabromo-2H-benzotriazol-2-yl)propyl]-1H-1,2,3-triazole-4-yl}propanoic acid (23)]
2260 | Cc1c(Br)c(Br)c(Br)c2nc[nH]c12 [4,5,6-tribromo-7-methyl-1H-benzimidazole (13)]

— BindingDB's records for doi:10.1016/j.bioorg.2017.02.017 (Warsaw University of Technology, 2017)
